{"source": "paper PMC12196278", "about": "“Targeting Neuronal Nitric Oxide Synthase (nNOS) as a Novel Approach to Enhancing the Anti-Melanoma Activity of Immune Checkpoint Inhibitors” (Pharmaceutics, 2025)", "key": {"Human eNOS": {"target": "Human eNOS (Homo sapiens, UniProt P29474)", "sequence (P29474 whole entry)": "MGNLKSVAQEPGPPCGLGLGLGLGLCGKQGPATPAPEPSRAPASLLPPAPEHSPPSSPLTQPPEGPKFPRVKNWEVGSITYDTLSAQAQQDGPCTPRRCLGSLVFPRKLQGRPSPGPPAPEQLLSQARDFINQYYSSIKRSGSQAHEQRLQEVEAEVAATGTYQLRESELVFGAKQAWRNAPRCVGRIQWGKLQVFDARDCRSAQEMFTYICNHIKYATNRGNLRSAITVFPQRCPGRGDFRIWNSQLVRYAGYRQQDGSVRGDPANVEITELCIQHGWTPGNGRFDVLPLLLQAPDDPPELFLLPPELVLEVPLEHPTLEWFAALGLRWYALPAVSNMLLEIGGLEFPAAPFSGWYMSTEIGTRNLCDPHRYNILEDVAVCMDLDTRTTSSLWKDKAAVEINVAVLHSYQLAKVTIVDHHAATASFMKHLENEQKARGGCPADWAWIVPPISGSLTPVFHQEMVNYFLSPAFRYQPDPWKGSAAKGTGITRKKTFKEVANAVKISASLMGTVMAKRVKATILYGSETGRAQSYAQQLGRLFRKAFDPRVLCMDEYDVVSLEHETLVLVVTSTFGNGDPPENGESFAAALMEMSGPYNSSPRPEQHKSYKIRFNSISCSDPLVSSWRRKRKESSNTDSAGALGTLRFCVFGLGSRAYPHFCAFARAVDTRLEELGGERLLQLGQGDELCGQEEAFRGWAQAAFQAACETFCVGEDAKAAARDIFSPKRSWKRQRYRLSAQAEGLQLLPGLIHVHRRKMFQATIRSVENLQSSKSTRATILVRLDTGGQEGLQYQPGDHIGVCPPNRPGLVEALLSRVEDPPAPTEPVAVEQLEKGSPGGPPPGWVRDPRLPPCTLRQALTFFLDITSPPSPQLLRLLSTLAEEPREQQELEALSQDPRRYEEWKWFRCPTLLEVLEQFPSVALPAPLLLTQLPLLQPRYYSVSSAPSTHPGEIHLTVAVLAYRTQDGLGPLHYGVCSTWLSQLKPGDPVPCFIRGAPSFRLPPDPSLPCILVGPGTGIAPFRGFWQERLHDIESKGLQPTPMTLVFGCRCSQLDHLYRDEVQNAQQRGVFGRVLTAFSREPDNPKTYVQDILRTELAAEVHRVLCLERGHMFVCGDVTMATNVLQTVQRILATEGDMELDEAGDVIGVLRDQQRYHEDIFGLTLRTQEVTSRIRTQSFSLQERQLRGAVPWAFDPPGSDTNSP", "experiment": "NOS selectivity assay, human eNOS", "format": "biochemical", "conditions": "calculated from IC50 with Cheng-Prusoff equation; read-out: Ki Human eNOS (he)", "experimental": "The Ki values were calculated from the IC50 values of the corresponding dose-response curves using the Cheng-Prusoff equation. […] All standard errors were less than 5%. Selectivity values were determined by calculating the ratios of the respective Ki values."}, "peripheral T cells": {"system": "peripheral T cells", "experiment": "Immune profile of peripheral T cells in allograft melanoma mice (flow cytometry)", "format": "in vivo, mouse", "conditions": "HH044 10 mg/kg intraperitoneal daily, peripheral blood, vs control group", "experimental": "The in vivo studies were carried out in compliance with the ARRIVE guidelines. All animal procedures were approved by the Institutional Animal Care and Use Committee (IACUC) at Chapman University and conducted in compliance with the policies of Chapman University and federal, state, and local animal welfare authorities. DBA/2 mice were purchased from Charles River (Wilmington, MA, USA) and housed in the Chapman University vivarium. Male mice were selected for the in vivo studies due to the markedly slow growth rate of CS91 cells in female mice observed in previous studies. To induce melanoma tumor growth, the mice were injected subcutaneously with 1 × 10^5 CS91 murine melanoma cells in a 100 μL solution of 50% Matrigel basement membrane matrix (CB354248, Corning, Corning, NY, USA). […] At the end of the study, peripheral blood was collected from the mice for T cell analysis.\nCells were blocked in FACS block buffer (0.5% BSA, 2% FBS in 1× PBS) and incubated in a surface marker antibody dilution in FACS wash buffer (0.5% BSA, 0.05% NaN3 in 1× PBS). Following fixation with True-Nuclear Fix Buffer (424401; BioLegend, San Diego, CA, USA), the cells were incubated with an intracellular antibody diluted in True-Nuclear Perm Buffer (424401; BioLegend, San Diego, CA, USA) overnight at 4 °C. The stained cells were then washed with Perm Buffer and analyzed using a BD Fortessa X20 flow cytometer (BD Biosciences, San Jose, CA, USA). Compensation beads (anti-mouse 552843; anti-rat 552844; BD Biosciences, Franklin Lakes, NJ, USA) stained with single antibodies were used to calculate the compensation, and data were analyzed and gated using FlowJo v. 10.8.1 (FlowJo LLC, Ashland, OR, USA).\nPeripheral blood samples were collected from the DBA/2 mice at the end of the study. T cells were isolated from the blood using Ficoll separation and stained as described above. The Ficoll-Paque solution was obtained from Cytiva (17144002; Marlborough, MA, USA). The T cell marker antibodies used were Brilliant Violet 605 anti-mouse CD3, PE/Cyanine7 anti-mouse CD4, Brilliant Violet 785 anti-mouse CD8a, APC/Cyanine7 anti-mouse CD279 (PD-1), Alexa Fluor 647 anti-GATA3, Alexa Fluor 488 anti-mouse FOXP3, Brilliant Violet 421 anti-T-bet (100237; 100421; 100749; 135223; 653809; 126406; 644815; BioLegend, San Diego, CA, USA), and PE-CF594 mouse anti-mouse RORγt (562684; BD Biosciences, Franklin Lakes, NJ, USA)."}, "[1]": {"experiment": "Body weight, cecum weight and toxicity signs in treated mice", "format": "in vivo, mouse", "experimental": "(§1) As described above, male DBA/2 mice were purchased from Charles River and housed in the Chapman University vivarium under pathogen-free conditions. Each mouse received a subcutaneous injection in the flank with 0.25 × 10^6 CS91 cells suspended in 50% Matrigel. […] The body weight and tumor volume were measured twice weekly for three weeks. Tumors were measured using calipers, and the volume (mm^3) was calculated with the following formula: volume = [length × (width^2)]/2. The mice were sacrificed once their tumors reached 2000 mm^3, and dates were recorded for survival analysis.\nUpon reaching the study endpoint, the mice were euthanized, and organs were collected and weighed."}, "[2]": {"system": "CS91 murine melanoma allograft", "experiment": "In vivo anti-melanoma efficacy, immunocompetent allograft model, tumor volume", "set-up": "species or system mouse", "conditions": "day 18, DBA/2 mice, nNOS inhibitor 10 mg/kg/day intraperitoneal, anti-PD-1 100 µg twice per week for 2 weeks", "experimental": "as §1"}, "melanoma cells": {"system": "melanoma cells", "set-up": "method as in PMID 35105915", "conditions": "read-out: Cytotoxicity IC50; cited from earlier work"}, "A375 cells": {"system": "A375 cells", "experiment": "NanoString nCounter PanCancer IO 360 gene expression profiling", "format": "cell-based, human", "experimental": "After treatment, the total RNA samples were collected from A375 cells using an RNeasy Mini Kit (#74104; Qiagen, Hilden, Germany) and stored at −80 °C prior to analysis. The nCounter PanCancer IO 360 Panel and nCounter Pro Analysis System (NanoString, Seattle, WA, USA) were used to quantify gene expression changes in 770 genes implicated in immune-oncological processes. The transcriptomic data were analyzed using ROSALIND online platform (https://www.rosalind.bio/, San Diego, CA, USA).\n(b) Comparing IFN-γ treatment to control. (c) Comparing the combination treatment to IFN-γ alone. […] All the treatments were independently repeated three times. […] The analysis was based on the expression changes of genes involved in each specific pathway, with a higher score signifying a greater probability of pathway involvement."}, "Human nNOS": {"target": "Human nNOS (Homo sapiens, UniProt P29475)", "sequence (P29475 whole entry)": "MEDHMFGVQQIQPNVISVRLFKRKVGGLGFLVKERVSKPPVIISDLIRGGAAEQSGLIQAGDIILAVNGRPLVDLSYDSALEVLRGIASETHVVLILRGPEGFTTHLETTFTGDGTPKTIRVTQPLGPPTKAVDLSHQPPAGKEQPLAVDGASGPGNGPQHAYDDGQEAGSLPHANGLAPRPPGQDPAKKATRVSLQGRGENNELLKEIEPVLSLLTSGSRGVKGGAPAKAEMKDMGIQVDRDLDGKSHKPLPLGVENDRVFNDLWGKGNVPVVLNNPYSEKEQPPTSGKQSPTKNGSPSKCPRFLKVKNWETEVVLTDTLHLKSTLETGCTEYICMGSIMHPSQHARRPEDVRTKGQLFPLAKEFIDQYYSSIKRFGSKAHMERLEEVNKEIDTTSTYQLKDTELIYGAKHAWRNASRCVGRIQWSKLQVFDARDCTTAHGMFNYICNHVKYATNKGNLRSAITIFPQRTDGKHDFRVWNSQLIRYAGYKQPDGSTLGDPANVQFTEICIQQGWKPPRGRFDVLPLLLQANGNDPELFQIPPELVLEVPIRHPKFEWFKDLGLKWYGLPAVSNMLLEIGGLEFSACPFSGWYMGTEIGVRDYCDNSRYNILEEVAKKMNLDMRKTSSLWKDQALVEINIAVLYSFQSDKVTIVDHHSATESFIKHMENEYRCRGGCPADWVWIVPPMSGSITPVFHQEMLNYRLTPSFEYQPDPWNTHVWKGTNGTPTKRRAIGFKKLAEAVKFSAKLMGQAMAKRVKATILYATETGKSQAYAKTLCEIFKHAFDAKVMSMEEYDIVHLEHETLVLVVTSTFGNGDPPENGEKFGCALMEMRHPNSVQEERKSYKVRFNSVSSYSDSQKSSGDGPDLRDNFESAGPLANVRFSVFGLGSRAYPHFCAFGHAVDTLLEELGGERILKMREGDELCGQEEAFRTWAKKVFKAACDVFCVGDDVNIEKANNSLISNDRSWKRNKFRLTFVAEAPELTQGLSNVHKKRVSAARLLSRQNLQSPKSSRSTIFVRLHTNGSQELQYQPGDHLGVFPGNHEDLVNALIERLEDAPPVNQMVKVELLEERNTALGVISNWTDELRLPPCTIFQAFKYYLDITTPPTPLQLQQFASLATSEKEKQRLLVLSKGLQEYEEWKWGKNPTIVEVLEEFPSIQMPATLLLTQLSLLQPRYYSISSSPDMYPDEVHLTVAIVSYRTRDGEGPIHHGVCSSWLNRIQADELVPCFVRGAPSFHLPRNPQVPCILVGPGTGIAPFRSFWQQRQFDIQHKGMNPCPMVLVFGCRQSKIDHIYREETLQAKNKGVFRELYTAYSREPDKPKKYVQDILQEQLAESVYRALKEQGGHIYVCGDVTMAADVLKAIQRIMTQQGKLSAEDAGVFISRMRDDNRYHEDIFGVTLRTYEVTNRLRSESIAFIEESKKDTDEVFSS", "experiment": "nNOS inhibitory assay, human nNOS", "format": "biochemical", "conditions": "calculated from IC50 with Cheng-Prusoff equation; read-out: Ki Human nNOS (hn)", "experimental": "The Ki values were calculated from the IC50 values of the corresponding dose-response curves using the Cheng-Prusoff equation. […] Selectivity values were determined by calculating the ratios of the respective Ki values."}, "CS91 cells": {"system": "CS91 cells", "experiment": "Ex vivo sensitivity of murine melanoma cells after prolonged treatment (MTT)", "format": "cell-based, mouse", "experimental": "The aseptically collected tumor samples were mechanically dissociated in 1× PBS and passed through a 40 µm cell strainer. Single cell suspensions were centrifuged and resuspended in full growth media supplemented with 100 µg/mL of primocin. The cells were then plated and allowed to adhere for 24 h. Afterward, the cultures were washed twice with 1× PBS to remove non-adherent cells and allowed to grow in full growth media.\nGraphPad Prism 9 was used to determine the IC50 of each compound by plotting the percent cell viability against the log drug concentrations and fitted using a nonlinear fit of the normalized data."}, "[3]": {"system": "CS91 murine melanoma allograft", "experiment": "Survival analysis in the murine melanoma model (endpoint tumor volume 2000 mm^3)", "format": "in vivo, mouse", "conditions": "DBA/2 mice, CS91, result in words", "experimental": "as §1\nStatistical analyses were carried out using GraphPad Prism 9. Comparisons of multiple groups were performed using mixed-effects analysis of variance (ANOVA) followed by Tukey’s post hoc test for parametric data. Statistical comparisons of two groups were performed using an unpaired two-tailed t-test for parametric data. Statistical comparison for a simple 2 × 2 contingency table was performed using a Chi-Square calculator on Social Science Statistics. Kaplan Meier methods were utilized for estimating the survival probability over time, with a tumor volume of 2000 mm^3 marking the endpoint for the survival study. A p value less than 0.05 was considered statistically significant for all statistical analyses. Data are graphically represented as bar graphs with the mean ± standard error of the mean (SEM)."}}, "note": "Like-named read-outs stand apart in the source and are kept apart here.", "data": [{"smiles": "N=C(Nc1ccc(CCNCc2cccc(NC(=N)c3cccs3)c2)cc1)c1cccs1", "note": "[HH044]", "values": [{"measurement": "Ki", "setting": "Human eNOS", "value": 6.74, "unit": "µM"}, {"measurement": "CD4+ T cell counts", "setting": "peripheral T cells", "value": "significantly increased"}, {"measurement": "CD4+GATA3+, CD4+RORγt+, CD4+Tbet+, and CD4+RORγt+FOXP3+ T cell counts", "setting": "peripheral T cells", "value": "decreased"}, {"measurement": "CD8+FOXP3+, CD8+GATA3+, CD8+Tbet+, and CD8+RORγt+FOXP3+ T cells", "setting": "peripheral T cells", "value": "significantly decreased"}, {"measurement": "frequency of CD8+PD-1+ T cells", "setting": "peripheral T cells", "value": "markedly increased"}, {"measurement": "overall percentage of CD8+ T cells", "setting": "peripheral T cells", "value": "significantly decreased"}, {"measurement": "cecum weights", "setting": "[1]; HH044 intraperitoneal 10 mg/kg/day ≥21 days vs control, p < 0.0001", "value": "significantly increased"}, {"measurement": "cecum weight", "setting": "[1]; HH044 oral gavage 10, 25 and 50 mg/kg per os daily, preliminary study", "value": "failed to observe any significant differences"}, {"measurement": "behavior and signs of toxicity during treatment", "setting": "[1]; HH044 treatment ≥21 days", "value": "no behavioral changes or other observable signs of severe toxicity or distress"}, {"measurement": "body weight", "setting": "[1]; HH044 treatment, 21 days", "value": "88 % of the control"}, {"measurement": "body weight compared with the control", "setting": "[1]; prolonged treatment, 21 days", "value": "significantly lower"}, {"measurement": "tumor growth / average tumor volume", "setting": "[2]", "value": "45.7 % of the control"}, {"measurement": "IC50", "setting": "melanoma cells", "value": "5.27 ± 3.3", "unit": "µM"}, {"measurement": "Notch2 expression", "setting": "A375 cells; HH044 in the presence of IFN-γ", "value": "increased"}, {"measurement": "AXIN1 expression", "setting": "A375 cells; HH044 treatment, A375", "value": "increased"}, {"measurement": "WNT5A expression", "setting": "A375 cells; HH044 treatment, A375", "value": "downregulated"}, {"measurement": "IL-1α expression", "setting": "A375 cells; HH044 treatment, A375, p < 0.05", "value": "30.3 % of the control"}, {"measurement": "expression of EDN1, PDGFB, and MMP9", "setting": "A375 cells; HH044 treatment, A375, vs control", "value": "significantly reduced"}, {"measurement": "Ki", "setting": "Human nNOS", "value": 0.02, "unit": "µM"}, {"measurement": "IC50", "setting": "CS91 cells; mice treated with the same compound 10 mg/kg/day intraperitoneal, read-out: IC50 of CS91 cells isolated from tumors of nNOS inhibitor-treated mice", "value": 10.4, "unit": "µM"}, {"measurement": "IC50", "setting": "CS91 cells; read-out: IC50 of in vitro cultured CS91 cells", "value": 12.7, "unit": "µM"}, {"measurement": "median survival / mouse survival compared with the control group", "setting": "[3]", "value": "not found to have significantly different median survival values"}]}]}
